Measurements as given in patent US6245817A, “NPY5 receptor antagonists and methods for using same” (Bayer Corporation, priority 1999, dated 2001).

How the values were obtained:
Human NPY2 receptor = biological target: T1, Human NPY2 receptor (Homo sapiens, UniProt P49146); experiment: Human NPY2 Receptor Binding Assay; settings: [125I]PYY; read-out: hPPY2 IC50
T1 sequence (P49146 1-381): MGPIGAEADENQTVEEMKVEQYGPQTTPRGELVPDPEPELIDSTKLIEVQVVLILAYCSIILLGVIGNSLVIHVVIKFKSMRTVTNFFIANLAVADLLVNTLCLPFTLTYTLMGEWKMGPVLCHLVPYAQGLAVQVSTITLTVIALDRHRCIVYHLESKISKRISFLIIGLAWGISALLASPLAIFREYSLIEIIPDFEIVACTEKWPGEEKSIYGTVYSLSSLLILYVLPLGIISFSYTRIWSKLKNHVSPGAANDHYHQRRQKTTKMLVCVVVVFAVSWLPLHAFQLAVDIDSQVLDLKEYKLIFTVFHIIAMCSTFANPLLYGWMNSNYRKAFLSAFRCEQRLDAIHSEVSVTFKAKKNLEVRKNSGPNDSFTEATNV
Procedure: Binding assays were performed on GF/C Millipore 96-well plates pretreated with 0.02% polyethylenimine. The binding buffer for rat Y2 binding is Krebs-Ringer bicarbonate (pH 7.4) containing 0.01% BSA and 0.005% bacitracin. Samples consist of membrane protein, 25 pM [125I]PYY and drug dilution. Nonspecific binding is defined by 1 μpM NPY.
After a 2 hour incubation at room temperature with constant mixing, the samples are aspirated on a vacuum manifold, and rinsed with ice-cold binding buffer. The amount of radioactivity in each well is quantitated with either gamma counting or liquid scintillation.

Human NPY5 Receptor = biological target: T2, Human NPY5 Receptor (Homo sapiens, UniProt Q15761); experiment: Human NPY5 Receptor Binding Assay; settings: [125I]PYY; read-out: hNPY5 IC50
T2 sequence (Q15761 1-445): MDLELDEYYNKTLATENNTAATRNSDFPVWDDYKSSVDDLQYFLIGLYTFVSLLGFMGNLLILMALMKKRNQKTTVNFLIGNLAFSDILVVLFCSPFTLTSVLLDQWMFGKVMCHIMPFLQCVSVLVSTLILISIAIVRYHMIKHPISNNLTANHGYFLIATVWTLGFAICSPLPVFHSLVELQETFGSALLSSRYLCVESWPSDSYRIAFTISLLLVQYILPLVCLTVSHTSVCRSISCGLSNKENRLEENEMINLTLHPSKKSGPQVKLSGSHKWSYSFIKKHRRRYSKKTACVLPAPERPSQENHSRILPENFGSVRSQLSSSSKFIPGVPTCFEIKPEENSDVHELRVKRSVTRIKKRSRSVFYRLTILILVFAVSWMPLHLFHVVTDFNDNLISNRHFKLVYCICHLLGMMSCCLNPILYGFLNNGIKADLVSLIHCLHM

Rat NPY5 Receptor = biological target: T3, Rat NPY5 Receptor (Rattus norvegicus, UniProt Q63634); experiment: Rat NPY5 Receptor Binding Assay; settings: [125I]PYY; read-out: rNPY5 IC50
T3 sequence (Q63634 1-445): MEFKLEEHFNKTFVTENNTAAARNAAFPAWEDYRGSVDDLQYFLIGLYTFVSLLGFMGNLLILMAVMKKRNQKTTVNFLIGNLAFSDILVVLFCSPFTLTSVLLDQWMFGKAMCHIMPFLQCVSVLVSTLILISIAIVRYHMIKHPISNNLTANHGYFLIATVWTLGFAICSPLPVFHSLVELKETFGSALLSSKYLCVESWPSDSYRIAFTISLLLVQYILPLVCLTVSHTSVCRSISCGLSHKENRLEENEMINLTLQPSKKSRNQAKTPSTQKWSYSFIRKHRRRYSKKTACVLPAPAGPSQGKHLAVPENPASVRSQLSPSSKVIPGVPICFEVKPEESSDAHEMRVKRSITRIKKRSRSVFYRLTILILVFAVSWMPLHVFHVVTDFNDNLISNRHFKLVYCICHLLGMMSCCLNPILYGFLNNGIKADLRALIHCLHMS

O=C(CSc1nc2cc([N+](=O)[O-])ccc2[nH]1)Nc1ccc(C2CCCCC2)cc1 [Compound 17, N-(4-Cyclohexyl-phenyl)-2-(5-nitro-1H-benzoimidazol-2-ylsulfanyl)-acetamide]
IC50 (Human NPY2 receptor): > 5000 nM | IC50 (Human NPY5 Receptor): 380 nM

O=C(CSc1nc2cc([N+](=O)[O-])ccc2[nH]1)Nc1ccc(C(=O)c2ccccc2)cc1 [Compound 18, N-(4-Benzoyl-phenyl)-2-(5-nitro-1H-benzolmidazol-2-ylsulfanyl)-acetamide]
IC50 (Human NPY2 receptor): > 5000 nM | IC50 (Human NPY5 Receptor): 200 nM

COc1ccc2[nH]c(SCC(=O)Nc3ccc(C4CCCCC4)cc3)nc2c1 [Compound 19, N-(4-Cyclohexyl-phenyl)-2-(5-methoxy-1H-benzolmidazol-2-ylsulfanyl)-acetamide]
IC50 (Human NPY2 receptor): > 5000 nM | IC50 (Human NPY5 Receptor): 710 nM

COc1ccc2[nH]c(SCC(=O)Nc3ccc(C(=O)c4ccccc4)cc3)nc2c1 [Compound 20, N-(4-Benzoyl-phenyl)-2-(5-methoxy-1H-benzolmidazol-2-ylsulfanyl)-acetamide]
IC50 (Human NPY2 receptor): > 5000 nM | IC50 (Human NPY5 Receptor): 420 nM

Cc1ccc2[nH]c(SCC(=O)Nc3ccc(C4CCCCC4)cc3)nc2c1 [Compound 21, N-(4-Cyclohexyl-phenyl)-2-(5-methyl-1H-benzolmidazol-2-ylsulfanyl)-acetamide]
IC50 (Human NPY2 receptor): > 5000 nM | IC50 (Human NPY5 Receptor): 430 nM

Cc1ccc2[nH]c(SCC(=O)Nc3ccc(C(=O)c4ccccc4)cc3)nc2c1 [Compound 22, N-(4-Benzoyl-phenyl)-2-(5-methyl-1H-benzolmidazol-2-ylsulfanyl)-acetamide]
IC50 (Human NPY2 receptor): > 5000 nM | IC50 (Human NPY5 Receptor): 310 nM

O=C(CSc1nc(-c2ccccc2)no1)Nc1ccc(C2CCCCC2)cc1 [Compound 90, N-(4-Cyclohexyl-phenyl)-2-(3-phenyl-[1,2,4]oxadiazol-ylsulfanyl)-acetamide]
IC50 (Human NPY5 Receptor): 260 nM | IC50 (Rat NPY5 Receptor): 340 nM

Cc1nnc(SCC(=O)Nc2ccc(C3CCCCC3)cc2)s1 [Compound 91, N-(4-Cyclohexyl-phenyl)-2-(5-methyl [1,3,4]thiadiazol-2-ylsulfanyl)-acetamide]
IC50 (Human NPY5 Receptor): 80 nM | IC50 (Rat NPY5 Receptor): 84 nM

O=C(CSc1nnnn1-c1ccc(O)cc1)Nc1ccc(C2CCCCC2)cc1 [Compound 92, N-(4-Cyclohexyl-phenyl)-2-[1-(4-hydroxy-phenyl)-1H-tetrazo-ylsulfanyl]-acetamide]
IC50 (Human NPY5 Receptor): 81 nM | IC50 (Rat NPY5 Receptor): 72 nM

O=C(CSc1nnc(-c2ccccc2)o1)Nc1ccc(C2CCCCC2)cc1 [Compound 94, N-(4-Cyclohexyl-phenyl)-2-(5-phenyl-[1,3,4]oxadiazo-2-ylsulfanyl)-acetamide]
IC50 (Human NPY5 Receptor): 670 nM | IC50 (Rat NPY5 Receptor): 1200 nM

O=C(CSCc1cccc(CS)c1)Nc1ccc(C2CCCCC2)cc1 [Compound 96, N-(4-Cyclohexyl-phenyl)-2-(3-mercaptomethyl-benzylsulfanyl)-acetamide]
IC50 (Human NPY5 Receptor): 850 nM | IC50 (Rat NPY5 Receptor): 610 nM

Nc1ccccc1SCC(=O)Nc1ccc(C2CCCCC2)cc1 [Compound 97, 2-(2-Amino-phenylsulfanyl)-N-(4-cyclohexyl-phenyl)-acetamide]
IC50 (Human NPY5 Receptor): 110 nM | IC50 (Rat NPY5 Receptor): 90 nM

Nc1cccc(SCC(=O)Nc2ccc(C3CCCCC3)cc2)c1 [Compound 98, 2-(3-Amino-phenylsulfanyl)-N-(4-cyclohexyl-phenyl)-acetamide]
IC50 (Human NPY5 Receptor): 320 nM | IC50 (Rat NPY5 Receptor): 290 nM

Nc1ccc(SCC(=O)Nc2ccc(C3CCCCC3)cc2)cc1 [Compound 99, 2-(4-Amino-phenylsulfanyl)-N-(4-cyclohexyl-phenyl)-acetamide]
IC50 (Human NPY5 Receptor): 690 nM | IC50 (Rat NPY5 Receptor): 510 nM

O=C(CSCc1cccc(CS)c1)Nc1ccc(C(=O)c2ccccc2)cc1 [Compound 101, N-(4-Benzoyl-phenyl)-2-(3-mercaptomethyl-benzylsulfanyl)-acetamide]
IC50 (Human NPY5 Receptor): 1400 nM | IC50 (Rat NPY5 Receptor): 1500 nM

Nc1cccc(SCC(=O)Nc2ccc(C(=O)c3ccccc3)cc2)c1 [Compound 102, 2-(3-Amino-phenylsulfanyl)-N-(4-benzoyl-phenyl)-acetamide]
IC50 (Human NPY5 Receptor): 340 nM | IC50 (Rat NPY5 Receptor): 310 nM

O=C(CSC1CCCC1)Nc1ccc(C(=O)c2ccccc2)cc1 [Compound 109, N-(4-Benzoyl-phenyl)-2-cyclopentylsulfanyl-acetamide]
IC50 (Human NPY5 Receptor): 610 nM | IC50 (Rat NPY5 Receptor): 370 nM

O=C(CSCc1ccco1)Nc1ccc(C(=O)c2ccccc2)cc1 [Compound 110, N-(4-Benzoyl-phenyl)-2-(furan-2-ylmethylsulfanyl)-acetamide]
IC50 (Human NPY5 Receptor): 290 nM | IC50 (Rat NPY5 Receptor): 340 nM

O=C(CSc1nnc(-c2ccco2)[nH]1)Nc1ccc(C2CCCCC2)cc1 [Compound 111, N-(4-Cyclohexyl-phenyl)-2-(5-furan-2-yl-4H-[1,2,4]triazol-3-ylsulfanyl)-acetamide]
IC50 (Human NPY5 Receptor): 1400 nM | IC50 (Rat NPY5 Receptor): 570 nM

Cn1c(CO)cnc1SCC(=O)Nc1ccc(C2CCCCC2)cc1 [Compound 114, N-(4-Cyclohexyl-phenyl)-2-(5-hydroxymethyl-1-methyl-1H-imidazol-2-ylsulfanyl)-acetamide]
IC50 (Human NPY5 Receptor): 900 nM | IC50 (Rat NPY5 Receptor): 390 nM

COC(=O)c1cnc(SCC(=O)Nc2ccc(C3CCCCC3)cc2)n1C [Compound 115]
IC50 (Human NPY5 Receptor): 900 nM | IC50 (Rat NPY5 Receptor): 360 nM

O=C(CSc1nnc(NC2CCCCC2)s1)Nc1ccc(C2CCCCC2)cc1 [Compound 116]
IC50 (Human NPY5 Receptor): 1300 nM | IC50 (Rat NPY5 Receptor): 2000 nM

CSc1sc(-c2nnc(SCC(=O)Nc3ccc(C(=O)c4ccccc4)cc3)n2C)c2c1C=CCC2 [Compound 119]
IC50 (Human NPY5 Receptor): 630 nM | IC50 (Rat NPY5 Receptor): 1500 nM

COc1ccc(-c2nnc(SCC(=O)Nc3ccc(C(=O)c4ccccc4)cc3)n2-c2cccc(C(F)(F)F)c2)cc1 [Compound 120, N-(4-Benzoyl-phenyl)-2-(5-(4-methoxy-phenyl)-4-(3-trifluoromethyl-phenyl)-4H-[1,2,4]triazol-3-ylsulfanyl]-acetamide]
IC50 (Human NPY5 Receptor): 1300 nM | IC50 (Rat NPY5 Receptor): 530 nM

Cn1c(CO)cnc1SCC(=O)Nc1ccc(C(=O)c2ccccc2)cc1 [Compound 121, N-(4-Benzoyl-phenyl)-2-(5-hydroxymethyl-1-methyl-1H-imidazol-2-ylsulfanyl)acetamide]
IC50 (Human NPY5 Receptor): 910 nM | IC50 (Rat NPY5 Receptor): 2800 nM

COC(=O)c1cnc(SCC(=O)Nc2ccc(C(=O)c3ccccc3)cc2)n1C [Compound 122, 2-[(4-Benzoyl-phenylcarbamoyl)-methylsulfanyl]-3-methyl-3H-imidazole-4-carboxylic acid methyl ester]
IC50 (Human NPY5 Receptor): 1500 nM | IC50 (Rat NPY5 Receptor): > 1000 nM

O=C(CSc1nnc(NC2CCCCC2)s1)Nc1ccc(C(=O)c2ccccc2)cc1 [Compound 123, N-(4-Benzoyl-phenyl)-2-(5-cyclohexylamino [1,3,4]thiadiazol-2-ylsulfanyl)-acetamide]
IC50 (Human NPY5 Receptor): 420 nM | IC50 (Rat NPY5 Receptor): 530 nM

O=C(CSc1nnc(CSCCOc2ccc(Cl)cc2Cl)o1)Nc1ccc(C(=O)c2ccccc2)cc1 [Compound 124]
IC50 (Human NPY5 Receptor): > 1000 nM | IC50 (Rat NPY5 Receptor): 2300 nM

CC(Sc1nnnn1C)C(=O)Nc1ccc(C(C)(C)C)cc1 (centres unmarked) [Compound 125, N-(4-tert-Butyl-phenyl)-2-(1-methyl-1H-tetrazol-5-ylsulfanyl)-propionamide]
IC50 (Human NPY5 Receptor): 1000 nM | IC50 (Rat NPY5 Receptor): 360 nM

CC(Sc1nnnn1C)C(=O)Nc1ccc(C2CCCCC2)cc1 (centres unmarked) [Compound 127, N-(4-Cyclohexyl-phenyl)-2-(1-methyl-1H-tetrazol-5-ylsulfanyl)-propionamide]
IC50 (Human NPY5 Receptor): 59 nM | IC50 (Rat NPY5 Receptor): 50 nM

Cn1nnnc1SCC(=O)Nc1ccc2c(c1)Cc1ccccc1-2 [Compound 130, N-(9H-Fluoren-2-yl)-2-(1-methyl-1H-tetrazol-5-ylsulfanyl)-acetamide]
IC50 (Human NPY5 Receptor): 160 nM | IC50 (Rat NPY5 Receptor): 150 nM
